Key:
[1] = system: Pyricularia oryzae; format: in vivo; details: 100 ppm active ingredient foliar spray plus root drench (approx. 40 ppm a.i. in dry soil), one or two days before inoculation
[2] = system: Erysiphe graminis hordei; assay: Foliar fungal disease test on plants: Erysiphe graminis hordei (Egh); format: in vivo; details: 100 ppm active ingredient foliar spray plus root drench (approx. 40 ppm a.i. in dry soil); plants inoculated 24 hours before treatment
[3] = system: Venturia inaequalis; assay: Foliar fungal disease test on plants: Venturia inaequalis (Vi); format: in vivo; details: 100 ppm active ingredient foliar spray plus root drench (approx. 40 ppm a.i. in dry soil), one or two days before inoculation
How it was run: (§1)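 Potted plants treated by foliar spray to maximum retention (100 ppm a.i. unless stated) plus root drench (~40 ppm a.i. in dry soil), with 0.05% Tween 20 on cereals, one or two days before spore-suspension inoculation.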

[4] = system: Phytophthora infestans lycopersici; format: in vivo; details: 100 ppm active ingredient foliar spray plus root drench (approx. 40 ppm a.i. in dry soil), one or two days before inoculation
[5] = system: Puccinia recondita; assay: Foliar fungal disease test on plants: Puccinia recondita (Pr); format: in vivo; details: 100 ppm active ingredient foliar spray plus root drench (approx. 40 ppm a.i. in dry soil), one or two days before inoculation
How it was run: as §1

[6] = system: Plasmopara viticola; assay: Foliar fungal disease test on plants: Plasmopara viticola (Pv); format: in vivo; details: 100 ppm active ingredient foliar spray plus root drench (approx. 40 ppm a.i. in dry soil), one or two days before inoculation
How it was run: as §1

[7] = system: Cercospora arachidicola; assay: Foliar fungal disease test on plants: Cercospora arachidicola (Ca); format: in vivo; details: 100 ppm active ingredient foliar spray plus root drench (approx. 40 ppm a.i. in dry soil), one or two days before inoculation
Procedure: The compounds were tested against a variety of foliar fungal diseases of plants. The technique employed was as follows.
The plants were grown in John Innes Potting Compost (No.1 or 2) in 4 cm diameter minipots. The test compounds were formulated either by bead milling with aqueous Dispersol T or as a solution in acetone or acetone/ethanol which was diluted to the required concentration immediately before use. For the foliage diseases, the formulations (100 ppm active ingredient except where otherwise indicated) were sprayed onto the foliage and applied to the roots of the plants in the soil. The sprays were applied to maximum retention and the root drenches to a final concentration equivalent to approximately 40 ppm a.i. in dry soil. Tween 20, to give a final concentration of 0.05%, was added when the sprays were applied to cereals.
For most of the tests the compound was applied to the soil (roots) and to the foliage (by spraying) one or two days before the plant was inoculated with the disease. An exception was the test on Erysiphe graminis in which the plants were inoculated 24 hours before treatment. Foliar pathogens were applied by spray as spore suspensions onto the leaves of test plants. After inoculation, the plants were put into an appropriate environment to allow infection to proceed and then incubated until the disease was ready for assessment. The period between inoculation and assessment varied from four to fourteen days according to the disease and environment.
The disease control vas recorded by the following grading:
3=trace-5% of disease on untreated plants
2=6-25% of disease on untreated plants
1=26-59% of disease on untreated plants
0=60-100% of disease on untreated plants
Ca Cercospora arachidicola

SMILES | melting point [°C] | disease control grading, Po (Pyricularia oryzae) [1] | disease control grading, Egh (Erysiphe graminis hordei) [2] | disease control grading, Vi (Venturia inaegualis) [3] | disease control grading, Pil (Phytophthora infestans lycopersici) [4] | disease control grading, Pr (Puccinia recondita) [5] | disease control grading, Pv (Plasmopara viticola) [6] | disease control grading, Ca (Cercospora arachidicola) [7]
CO/C=C(/C(=O)OC)c1ccccc1Oc1cc(OCc2ccc([N+](=O)[O-])cc2)ncn1 | 96 to 98 |  |  |  |  |  |  | 
CO/C=C(/C(=O)OC)c1ccccc1Oc1cc(Sc2ccccn2)ncn1 [218 of Table I] |  | 3 (3=trace-5% of disease on untreated plants) | 4 (4=no disease) | 4 (4=no disease) | 3 (3=trace-5% of disease on untreated plants) | 4 (4=no disease) | 4 (4=no disease) | 4 (4=no disease)
CO/C=C(/C(=O)OC)c1ccccc1Oc1cc(Sc2ncccn2)ncn1 [239 of Table I] |  | 3 (3=trace-5% of disease on untreated plants) | 4 (4=no disease) | 4 (4=no disease) | 4 (4=no disease) | 4 (4=no disease) | 4 (4=no disease) | 4 (4=no disease)
CO/C=C(/C(=O)OC)c1ccccc1Oc1cc(N(C)c2ccccc2C#N)ncn1 [354 of Table I] |  | 3 (3=trace-5% of disease on untreated plants) | 4 (4=no disease) | 4 (4=no disease) | 0 (0=60-100% of disease on untreated plants) | 4 (4=no disease) | 4 (4=no disease) | 4 (4=no disease)
CO/C=C(/C(=O)OC)c1ccccc1Oc1cc(N(C(=O)c2ccccc2)C(=O)c2ccccc2)ncn1 [398 of Table I] |  | 3 (3=trace-5% of disease on untreated plants) | 4 (4=no disease) | 4 (4=no disease) | 4 (4=no disease) | 4 (4=no disease) | 4 (4=no disease) | 4 (4=no disease)
CO/C=C(/C(=O)OC)c1ccccc1Oc1cc(Nc2ccccc2C#N)ncn1 [377 of Table I] |  | 0 (0=60-100% of disease on untreated plants) | 4 (4=no disease) | 4 (4=no disease) | 4 (4=no disease) | 4 (4=no disease) | 4 (4=no disease) | 4 (4=no disease)
CO/C=C(/C(=O)OC)c1ccccc1Oc1cc(Nc2ccccn2)ncn1 [220 of Table I] |  | 4 (4=no disease) | 4 (4=no disease) | 4 (4=no disease) | 0 (0=60-100% of disease on untreated plants) | 4 (4=no disease) | 4 (4=no disease) | 4 (4=no disease)

Source: US6777412B2 (priority 1990, dated 2004)
